Laboratory results taken from article PMC7804859, “A metabolically stable apelin-17 analog decreases AVP-induced antidiuresis and improves hyponatremia” (Nature Communications, 2021).
Several values for one entry are separate records, joined by “and”; a condition that tells them apart may be missing. Equal values may be shown once.

What was measured:
[1] = tested on: normonatremic Sprague-Dawley rats; test: Blood and urine chemistry after 4 days of s.c. administration in rats; assay type: in vivo, rat; set-up: Plasma glucose: unit not given beside the values; Blood urea nitrogen / 24h Urine glucose: unit not given here
Procedure: Fractional excretion of water (in %) was calculated using the following formula: (plasma creatinine/urine creatinine) × 100. Fractional excretion of sodium (in %) was calculated using the following formula: (plasma creatinine × urine sodium/urine creatinine × plasma sodium) × 100. Blood and urine creatinine, urea nitrogen, and glucose levels were determined using an AU5800 Beckman Coulter chemistry analyzer (Beckman Coulter, Villepinte, France).

[2] = tested on: hyponatremic rats (AVP 30 ng/h); test: Effects of LIT01-196 and tolvaptan in rat model of AVP-induced hyponatremia; assay type: in vivo
Procedure: Meloxicam was administered postoperatively for analgesia. Animals were then individually housed in metabolic cages (Techniplast), and given a semi-liquid diet consisting of 25 ml Gel-Diet Breeding-10 (SAFE, Augy, France) mixed with 25 ml tap water per day, with water available ad libitum. Animal weight, water, and food consumption were measured daily. Urine was collected daily, urinary electrolytes (Na^+, K^+, Cl^−) were determined with an ISE 3000 (Caretium Medical Instruments, Shenzhen, China) and urinary osmolality was measured with a Cryobasic 1 osmometer (Astori Tecnica, Poncarale, Italy). Blood samples were collected on ice, before implantation of the osmotic minipump, and before drug administration, under isoflurane anesthesia, from the tail vein (4 µl of lithium heparinate (1600 IU/ml) for 400 µl of blood). The blood samples were immediately centrifuged (4 °C, 2600 × g, 20 min), and plasma electrolyte (Na^+, K^+, Cl^−) levels were quantified with an ISE 3000. On the last day of the experiment, blood was also collected on ice by intracardiac puncture. This blood sample was collected into lithium heparinate under isoflurane anesthesia; plasma electrolyte levels were determined as described above and the animals were immediately killed by carbon monoxide inhalation.

human V2-R = molecular target: T1, human V2-R (Homo sapiens, UniProt P30518); test: cAMP production in HEK-293 T cells expressing the human V2-R (HTRF); assay type: cell-based; conditions: HEK-293 T cells, human V2-R
T1 construct: host or cells: HEK-293T cells, transient transfection
T1 sequence (P30518 whole entry): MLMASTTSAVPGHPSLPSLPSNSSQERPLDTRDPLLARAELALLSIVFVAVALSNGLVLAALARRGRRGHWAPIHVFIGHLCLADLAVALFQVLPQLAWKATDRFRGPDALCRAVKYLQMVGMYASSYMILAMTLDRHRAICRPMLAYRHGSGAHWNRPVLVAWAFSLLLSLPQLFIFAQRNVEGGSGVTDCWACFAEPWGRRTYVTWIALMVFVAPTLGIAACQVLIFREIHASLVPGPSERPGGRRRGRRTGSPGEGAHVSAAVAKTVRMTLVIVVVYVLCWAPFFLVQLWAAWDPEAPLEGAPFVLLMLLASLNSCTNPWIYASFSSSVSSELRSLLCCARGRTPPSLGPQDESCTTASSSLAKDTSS
Procedure: 152 Supplementary Methods
154 We quantified cAMP production with the cAMP dynamic 2 assay kit (Cisbio Bioassays,
155 Codolet, France), which is based on homogeneous time-resolved fluorescence (HTRF)
156 technology, as previously described 1. […]
For cells expressing the V2-R, HEK-
160 293T cells were transiently transfected with the human V2-R (cDNA Resource Center), after
161 48h, 4000 cells/well were added to white 384-well optiplates and stimulated either with 5
Cells were then lysed, and
165 cAMP levels were determined in accordance with the kit manufacturer’s instructions.
166 Stimulation was performed in stimulation buffer-IBMX (SBI) (Hank’s balanced salt solution
167 (HBSS-Life Technology), 5 mmol/l Hepes, 0.1% BSA stabilizer (Perkin Elmer), 1 mmol/l
168 isobutylmethylxanthine (IBMX, Sigma Aldrich, pH 7.4)). […]

rat apelin-R = molecular target: T2, rat apelin-R (Rattus norvegicus, UniProt Q9JHG3); test: Radioligand binding ([125I]-pE13F) to membranes from CHO cells stably expressing rat apelin-R-EGFP; conditions: 1 h 20 °C, pH 7.4, new batch of LIT01-196
T2 construct: expressed in transfected cells; membrane preparation
T2 sequence (Q9JHG3 1-377): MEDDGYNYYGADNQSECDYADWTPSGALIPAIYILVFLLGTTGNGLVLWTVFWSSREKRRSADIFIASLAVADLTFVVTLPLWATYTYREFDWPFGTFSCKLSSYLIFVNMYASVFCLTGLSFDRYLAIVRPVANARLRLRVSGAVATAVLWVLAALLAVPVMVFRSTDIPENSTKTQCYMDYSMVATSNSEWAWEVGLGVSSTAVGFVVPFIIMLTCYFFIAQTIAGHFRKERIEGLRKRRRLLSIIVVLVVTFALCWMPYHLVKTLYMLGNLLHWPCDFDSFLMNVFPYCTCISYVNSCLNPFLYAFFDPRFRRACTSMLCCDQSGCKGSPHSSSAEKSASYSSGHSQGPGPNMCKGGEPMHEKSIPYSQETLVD
Procedure: Membranes from CHO cells stably expressing rat apelin-R-EGFP were prepared as previously described[23]. […] The reaction was stopped by adding ice-cold binding buffer and filtering through Whatman GF/C filters. The filters were washed and radioactivity was counted with a Wizard 1470 Wallac gamma counter (PerkinElmer, Turku, Finland).

mice = test: Left ventricular ejection fraction by echocardiography in mice; assay type: in vivo, mouse
Procedure: LVEF was determined in mice under isoflurane anesthesia at baseline and 3 h after s.c. administration of the compound, as previously described.

[3] = Brain apelin-immunoreactive levels in rats (RIA); assay type: in vivo, rat
Procedure: (§1) 187 Apelin radioimmunoassay
(§2) 189 until use for apelin RIA.
(§3) The supernatants were collected and
(§4) The samples were dried and dissolved in
(§5) 201 centrifuged (17000 x g, 4°C, 20 min). The supernatant (4 ml) was collected, and mixed with
(§6) The columns were then treated as described in
(§7) Samples (0.1ml) w ere mixed with 125I-
(§8) 212 used this radioligand instead of [Glp65, Nle75, Tyr77] [125I]-apelin13 since the substitution of
(§9) 214 derivatives as described previously by 3,4.
(§10) 216 incubated for 10 min at room temperature.

hyponatremic rats = test: Plasma AVP and apelin-IR levels in hyponatremic rats (RIA); assay type: in vivo, rat
Procedure: as §1, §2, §3, §4, §5, §6, §7, §8, §9, §10
This antiserum identified the apelin present in the
Most of the apelin in human plasma was
252 TechMedILL platfor m (Illkirch) reviewed and approved by the agriculture ministry regulating
256 Male Sprague-Dawley rats were killed by decapitation, and trunk blood was collected on ice
257 (into 50 µl of 0.3M EDTA (pH 7.4) per 1 ml of blood). Samples were centrifuged (2,600 x g,
258 4°C, 20 min), and the resulting plasma was split into 500 µl aliquots, to which we added 168
259 µl of 3N HCl before storage at -80°C. The AVP RIA was performed as previously described
260 5, using a specific AVP-[Arg8] antibody (final dilution, 1/4.5) and [125I]-(Tyr2Arg8)-AVP
261 (2200 Ci/mmol, Perkin-Elmer, Billerica, MA; 15000 dpm) as a tracer. […]

[4] = Plasma LIT01-196 levels by mass spectrometry after i.v. injection in mice; assay type: in vivo, mouse; conditions: for Apelin (plasma LIT01-196 concentration by mass spectrometry): 300 nmol/kg IV
Text: The detection limit was 6
The within- and between-assay
229 coefficients of variation were 3 and 5%, respectively6. The recovery (mean±SEM) was
233 the elimination rate constant.
236 animals per time point).
242 and 0.05% formic acid; solvent B: acetonitrile). Plasma samples were processed before RP-
244 acetonitrile for protein precipitation and compound extraction. Samples were vortex-stirred
248 standard and compared to standard curves. Standard curves were obtained by analyzing
250 using the same procedure. Pharmacokinetics parameters were calculated using a one-
Peptide injection and blood sample collection were performed by […]

Compound: CSCC[C@H](NC(=O)[C@@H]1CCCN1C(=O)CNC(=O)[C@H](CCCCN)NC(=O)[C@H](Cc1c[nH]cn1)NC(=O)[C@H](CO)NC(=O)[C@H](CC(C)C)NC(=O)[C@H](CCCNC(=N)N)NC(=O)[C@@H]1CCCN1C(=O)[C@H](CCCNC(=N)N)NC(=O)[C@H](CCC(N)=O)NC(=O)[C@H](CCCNC(=N)N)NC(=O)[C@H](CCCNC(=N)N)NC(=O)[C@H](Cc1ccccc1)NC(=O)[C@H](CCCCN)NC(=O)CCC(F)(F)C(F)(F)C(F)(F)C(F)(F)C(F)(F)C(F)(F)C(F)(F)C(F)(F)F)C(=O)N1CCC[C@H]1C(=O)N[C@@H](Cc1ccccc1)C(=O)O [LIT01-196]
- Plasma creatinine ([1]; 900 nmol/kg SC, individual animals (Fig. S5G source data)): 21 and 24 and 22
- Blood urea nitrogen ([1]; 900 nmol/kg SC, individual animals (Fig. S5H source data)): 7 and 8 and 5.6 and 6.8 and 6.1
- Plasma potassium ([1]; 900 nmol/kg SC, individual animals (Fig. S5J source data)): 4.54 and 4.76 and 5.03 and 4.26 and 4.35
- Plasma glucose ([1]; 900 nmol/kg SC, individual animals (Fig. S5K source data)): 8.1 and 9.1 and 7.4 and 8 and 7.6
- 24h Urine glucose ([1]; 900 nmol/kg SC, individual animals (Fig. S5L source data)): 0.04364 and 0.0331 and 0.0123 and 0
- blood creatinine, urea nitrogen, sodium, and potassium levels ([1]; 900 nmol/kg s.c. for 4 days, rats): not changed
- plasma or urine glucose levels ([1]; repeated 900 nmol/kg s.c., normonatremic rats): not associated with a change
- increase in urine output 24 h after s.c. administration ([2]; 180 nmol/kg s.c., rats receiving 30 ng/h AVP): 1.5 ± 2.0 ml/24 h/100 g
- urine osmolality, lower than AVP + saline group ([2]; 900 nmol/kg s.c. on days 0 and 1): 58%
- urine output, higher than AVP + saline group ([2]; 900 nmol/kg s.c. on days 0 and 1, average days 1 to 2, n = 9): 185%
- plasma sodium concentration on day 2 ([2]; 900 nmol/kg s.c. on days 0 and 1, saline 100 ± 2): 110 ± 5 mmol/L
- plasma sodium concentration on day 1 ([2]; 900 nmol/kg s.c., 24 h after first administration, saline 100 ± 2): 109 ± 5 mmol/L
- body weight change from baseline versus saline ([2]; 900 nmol/kg s.c., AVP-treated animals): similar
- water consumption (including water in diet), higher than AVP + saline group ([2]; 900 nmol/kg s.c., average days 1 to 2): 177%
- food consumption ([2]; 900 nmol/kg s.c., hyponatremic rats): significant increase
- increase in urine output 24 h after s.c. administration ([2]; 900 nmol/kg s.c., rats receiving 30 ng/h AVP and liquid diet): 11.7 ± 2.3 ml/24 h/100 g
- increase in urine output 24 h after s.c. administration ([2]; 2400 nmol/kg s.c., rats receiving 30 ng/h AVP): 9.2 ± 4.1 ml/24 h/100 g
- effect on cAMP production induced by 1 µmol/l AVP (human V2-R; 1 µmol/l compound, 30 min 37 °C): did not modify
- effect on basal cAMP production (human V2-R; compound alone at 1 µmol/l): did not modify
- Ki (rat apelin-R): 0.34 ± 0.05 nM
- FEVG.TM. 3 hours (mice; 1200 nmol/kg SC, 3 hours, individual animals (Fig. S5B source data)): 55.1558 and 58.4253 and 55.5031 and 58.4836 and 58.0536
- FEVG.TM. Baseline (mice; 1200 nmol/kg SC, baseline, individual animals (Fig. S5B source data)): 49.7762 and 61.2453 and 58.1457 and 44.7681 and 49.1413
- LVEF 3 h after administration (mice; 1200 nmol/kg s.c., mice, n = 5, 52.6 ± 3.0 before administration, p = 0.31): 57.1 ± 0.7%
- crossing of the blood-brain barrier ([3]; rats and mice, 30 min after s.c. 900 nmol/kg): does not cross the BBB and does not enter the brain
- Brain apelin ([3]; rats, 30 min after 900 nmol/kg SC, single animals): 1.581 and 0.931 and 1.563 and 1.024 and 1.473
- apelin-IR levels in the brain ([3]; rats, 30 min after s.c. 900 nmol/kg, saline 1.2 ± 0.15, n = 5): 1.3 ± 0.14 pmol/brain
- plasma AVP levels versus AVP-treated rats receiving saline (hyponatremic rats; 900 nmol/kg s.c., 3 h): No significant difference
- increase in plasma apelin-IR/AVP ratio relative to saline (hyponatremic rats; 900 nmol/kg s.c., 3 h, hyponatremic rats): 518%
- plasma apelin-IR material levels, higher than AVP + saline (hyponatremic rats; 900 nmol/kg s.c., 3 h, n = 5): 372%
- Plasma AVP (hyponatremic rats; AVP 30 ng/h rats, LIT01-196 900 nmol/kg SC, individual animals (Fig. 6A source data)): 26.2192 and 47.0941 and 28.2654 and 46.4247 and 26.8381
- Plasma apelin (hyponatremic rats; AVP 30 ng/h rats, LIT01-196 900 nmol/kg SC, individual animals (Fig. 6B source data)): 2578 and 2160 and 2508 and 1740 and 2599
- Apelin to AVP ratio (hyponatremic rats; AVP 30 ng/h rats, LIT01-196 900 nmol/kg SC, individual animals (Fig. 6C source data)): 98.309 and 45.8759 and 88.7295 and 37.4882 and 96.8538
- Apelin (plasma LIT01-196 concentration by mass spectrometry) ([4]; temps.min 5, single animals): 774.627 and 804.594 and 622.343
- Apelin (plasma LIT01-196 concentration by mass spectrometry) ([4]; temps.min 15, single animals): 548.524 and 627.056 and 820.177
- Apelin (plasma LIT01-196 concentration by mass spectrometry) ([4]; temps.min 28, single animals): 266.538 and 138.326 and 371.965
- Apelin (plasma LIT01-196 concentration by mass spectrometry) ([4]; temps.min 60, single animals): 64.4359 and 230.369 and 324.336
- half-life ([4]; CD-1, mouse, in vivo, iv, 300 nmol/kg i.v., UHPLC-MS/MS, one-compartment model, 3 animals per time point): 29 min
